This is an account of results in patent publication US4563306A, “Peptides and process for preparing the same” (Tanabe Seiyaku Co., Ltd., priority 1983, dated 1986).

Common to all, as to assay type: in vivo
The subject of assay [1] is male STD/ddy mice. Description: Antagonistic effect on reserpine-induced hypothermia. The conditions noted are these: intraperitoneal, rectal temperature 30, 60, 120 and 180 minutes after administration, parallel line assay, TRH = 1. The procedure:
(4) Antagonistic effect on reserpine-induced hypothermia:
A test compound dissolved in physiological saline was intraperitoneally administered to a group of five male STD/ddy mice, and the rectal temperature was measured 30, 60, 120 and 180 minutes after the administration of the test compound. The increase in temperature in the treated group was compared to that in the control group which received physiological saline instead of the test compound solution.

Assay [2] has as its system male STD/ddy mice. Description: Antagonistic effect on pentobarbital anesthesia. The conditions noted are these: pentobarbital sodium 55 mg/kg i.p., test compound intravenous 10 minutes later, duration of anesthesia, parallel line assay, TRH = 1. The procedure:
(2) Antagonistic effect on pentobarbital anesthesia:
Pentobarbital sodium was intraperitoneally administered to a group of ten male STD/ddy mice at a dose of 55 mg/kg. Ten minutes after the administration of pentobarbital sodium, a test compound dissolved in physiological saline was intravenously administered to the mice which had lost the righting reflex. The duration of anesthesia was measured as the time from the end of administration of the test compound until the righting reflex regained. Physiological saline was used for control instead of the test compound solution (Prange et al., Life Science, 14, 447-455, (1974)).

Assay [3] deals with male STD/ddy mice. Briefly: Potentiating effect on methamphetamine-induced hyperlocomotion. As to conditions: methamphetamine 0.2 mg/kg and test compound intraperitoneally at the same time, locomotor activity for 60 minutes, parallel line assay, TRH = 1. The procedure: (5) Potentiating effect on methamphetamine-induced hyperlocomotion:
A group of ten male STD/ddY mice were individually placed in Ambulometer for 30 minutes to acclimatize to the apparatus.

Assay [4] has as its system male STD/ddy mice. Description: Increasing effect on spontaneous locomotor activity (Ambulometer). The conditions noted are these: intraperitoneal, activity measured for 60 minutes, parallel line assay, TRH = 1. As for the experimental part: (3) Increasing effect on spontaneous locomotor activity:
A group of five male STD/ddY mice were individually placed in Ambulometer (i.e., an apparatus for measuring spontaneous locomotor activity; manufactured by OHARA IKA Co.) for 30 minutes to acclimatize to the apparatus. Thereafter, a test compound dissolved in physiological saline was intraperitoneally administered to the mice and, immediately after administration of the test compound, the spontaneous locomotor activity was measured for 60 minutes. Physiological saline was used for control instead of the test compound solution.

The test system of assay [5] is Serum TSH levels. Description: TSH-releasing activity (serum TSH by double-antibody radioimmunoassay after i.v. administration). The conditions noted are these: male JCL: SD rats, intravenous, serum TSH 15 minutes after administration; parallel line assay, TRH = 1. As for the experimental part:
(1) TSH-releasing activity:
A test compound dissolved in a 0.1% BSA (bovine serum albumin)-containing physiological saline was intravenously administered to a group of five male JCL: SD rats. Fifteen minutes after the administration, blood was taken from the abdominal aorta under anesthesia. Serum TSH levels were determined by the double-antibody radioimmunoassay method (Midgley et al., Endocrinology., 79, 10 (1966)). The BSA-containing physiological saline was used for control instead of the test compound solution.

In the case of `NC(=O)[C@@H]1CCCN1C(=O)[C@H](Cc1c[nH]cn1)NC(=O)[C@@H]1CCC(=O)N1` [TRH, L-pyroglutamyl-L-histidyl-L-prolinamide], the “Antagonistic effect on reserpine-induced hypothermia, potency ratio relative to TRH” value in assay [1] came to 1. The “Antagonistic effect on pentobarbital anesthesia, potency ratio relative to TRH” value in assay [2] is on record as 1. Besides, in assay [3], the “Potentiating effect on action of methamphetamine, potency ratio relative to TRH” value was 1. In assay [4], the “Increasing effect on spontaneous locomotor activity, potency ratio relative to TRH” value came out at 1. The “TSH-releasing activity, potency ratio relative to TRH” value in assay [5] is on record as 1.
For `NC(=O)[C@@H]1CCCN1C(=O)[C@H](Cc1c[nH]cn1)NC(=O)[C@@H]1Cc2ccccc2C(=O)N1` [N^α -[(3 S)-1-oxo-1,2,3,4-tetrahydroisoquinoline-3-carbonyl]-L-histidyl-L-prolinamide], the “Antagonistic effect on reserpine-induced hypothermia, potency ratio relative to TRH” value in assay [1] worked out at 10. Besides, in assay [2], the “Antagonistic effect on pentobarbital anesthesia, potency ratio relative to TRH” value was 10. Further, in assay [3], the “Potentiating effect on action of methamphetamine, potency ratio relative to TRH” value was determined as 10. In addition, the “Increasing effect on spontaneous locomotor activity, potency ratio relative to TRH” value in assay [4] came to 10. Also, the “TSH-releasing activity, potency ratio relative to TRH” value in assay [5] was determined as 1.
